Assay [1] concerns cabbage alternaria sooty spot fungi (Alternaia brassicicola). The assay can be described thus: Test Example C: cabbage alternaria sooty spot, spray test on potted cabbage plants. Conditions: in Brassica oleracea, read-out: control value.
From the text: Control value=100{1−(n/3)}
Test plants (cabbage variety: Shikidori) were cultivated until the cotyledons extended after the sowing of seeds.
For assay [2], the system named is cucumber anthracnose fungi (Colletotrichum orbiculare). As to the kind of experiment: Test Example H: cucumber anthracnose, spray test on potted cucumber plants. The conditions noted are these: in Cucumis sativus, read-out: control value.
The subject of assay [3] is gray mold fungi (Botrytis cinerea). As to the kind of experiment: Test Example B: tomato gray mold, spray test on potted tomato plants. The conditions noted are these: in Solanum lycopersicum, read-out: control value.
From the text: Control value=100{1−(n/3)}
Test plants (tomato variety: Oogata Fukuju) were cultivated until three to five first leaves (true leaves) appeared after the sowing of seeds.

As to `CCn1c(-c2c(F)cccc2F)c(NC)cc(Cl)c1=O` [Compound 3, 3-chloro-6-(2,6-difluorophenyl)-1-ethyl-5-(methylamino)-pyridin-2(1H)-one], the pest or weed control at 250 ppm in assay [1] and in assay [2] was greater than 50% each time.

On to `CCn1c(-c2c(F)cccc2F)c(N=CN2CCCC2)cc(Cl)c1=O` [Compound 8, 3-chloro-6-(2,6-difluorophenyl)-1-ethyl-5-((pyrrolidin-1-yl-methylene)amino)pyridin-2(1H)-one], for which the pest or weed control at 250 ppm in assay [1], in assay [3] and in assay [2] was greater than 50% throughout.

Consider `CCn1c(-c2ccc(F)cc2Cl)c(N)cc(Cl)c1=O` [Compound 32, 5-amino-3-chloro-6-(2-chloro-4-fluorophenyl)-1-ethylpyridin-2(1H)-one], for which the pest or weed control at 250 ppm in assay [2] was greater than 50%.

As to `CCn1c(-c2ccc(F)cc2Cl)c(N2CCC(C)CC2)cc(Cl)c1=O` [compound 365, 3-chloro-6-(2-chloro-4-fluorophenyl)-1-ethyl-5-(4-methyl-piperidin-1-yl)pyridin-2(1H)-one], the pest or weed control at 250 ppm in assay [1], in assay [3] and in assay [2] was greater than 50% each time.

Consider `CCn1c(-c2c(F)cccc2F)c(N(C)C(=O)OC(C)(C)C)cc(Cl)c1=O` [Compound 2, tert-butyl (5-chloro-2-(2,6-difluorophenyl)-1-ethyl-6-oxo-1,6-dihydropyridin-3-yl)(methyl)carbamate], for which the pest or weed control at 250 ppm in assay [1] is greater than 50%.

As to `CCn1c(-c2c(F)cccc2F)c(N2CCOCC2)cc(Cl)c1=O` [compound 426, 3-chloro-6-(2,6-difluorophenyl)-1-ethyl-5-morpholinopyridin-2(1H)-one], the pest or weed control at 250 ppm in assay [1], in assay [3] and in assay [2] was greater than 50% in each case.

`CCN(C)c1cc(Cl)c(=O)n(CC)c1-c1c(F)cccc1F` [Compound 5, 3-chloro-6-(2,6-difluorophenyl)-1-ethyl-5-(ethyl(methyl)-amino)pyridin-2(1H)-one]: the pest or weed control at 250 ppm in assay [1], in assay [3] and in assay [2] was greater than 50% throughout.

With `CCn1c(-c2ccc(F)cc2Cl)c(N2CCCCC2)cc(Cl)c1=O` [Compound 44, 3-chloro-6-(2-chloro-4-fluorophenyl)-1-ethyl-5-(piperidin-1-yl)pyridin-2(1H)-one], the pest or weed control at 250 ppm in assay [1], in assay [3] and in assay [2] was greater than 50% throughout.

For the molecule `CCn1c(-c2c(F)cccc2F)c(N)cc(Cl)c1=O` [Compound 59, 5-amino-3-chloro-6-(2,6-difluorophenyl)-1-ethylpyridin-2(1H)-one], the pest or weed control at 250 ppm in assay [2] is greater than 50%.

With `CCn1c(-c2c(F)cccc2F)c(Nc2ccccc2)cc(Cl)c1=O` [compound 317, 3-chloro-6-(2,6-difluorophenyl)-1-ethyl-5-(phenylamino)pyridin-2(1H)-one], the pest or weed control at 250 ppm in assay [1], in assay [3] and in assay [2] was greater than 50% in each case.

With `CCn1c(-c2c(F)cccc2F)c(N(C)C)cc(Cl)c1=O` [Compound 4, 3-chloro-6-(2,6-difluorophenyl)-5-(dimethylamino)-1-ethyl-pyridin-2(1H)-one], the pest or weed control at 250 ppm in assay [1], in assay [3] and in assay [2] was greater than 50% throughout.

For `CCn1c(-c2c(F)cccc2F)c(NC(=O)OC(C)(C)C)cc(Cl)c1=O` [Compound 1, tert-butyl (5-chloro-2-(2,6-difluorophenyl)-1-ethyl-6-oxo-1,6-dihydropyridin-3-yl)carbamate], the pest or weed control at 250 ppm in assay [1] is greater than 50%.

On to `CCn1c(-c2ccc(F)cc2Cl)c(NC(=O)OC(C)(C)C)cc(Cl)c1=O` [Compound 27, tert-butyl (5-chloro-2-(2-chloro-4-fluorophenyl)-1-ethyl-6-oxo-1,6-dihydropyridin-3-yl)carbamate], for which the pest or weed control at 250 ppm in assay [3] is greater than 50%.

As to `CCN(C(=O)OC(C)(C)C)c1cc(Cl)c(=O)n(CC)c1-c1ccc(F)cc1` [Compound 17, tert-butyl (5-chloro-1-ethyl-2-(4-fluorophenyl)-6-oxo-1,6-dihydropyridin-3-yl)(ethyl)carbamate], the pest or weed control at 250 ppm in assay [2] was greater than 50%.

`CCNc1cc(Cl)c(=O)n(CC)c1-c1ccc(F)cc1` [Compound 20, 3-chloro-1-ethyl-5-(ethylamino)-6-(4-fluorophenyl)pyridin-2(1H)-one]: the pest or weed control at 250 ppm in assay [2] is greater than 50%.

Source of the values: US20200172486A1, “PYRIDONE COMPOUNDS AND AGRICULTURAL AND HORTICULTURAL FUNGICIDES CONTAINING THE SAME AS ACTIVE INGREDIENTS” (MITSUI CHEMICALS AGRO, INC., priority 2017, published 2020).
